In ChEMBL document CHEMBL1949573, “Isoform-selective thiazolo[5,4-b]pyridine S1P1 agonists possessing acyclic amino carboxylate head-groups” (Bioorg Med Chem Lett, 2012):
Values after ≈ are worked out from the molar mass of the structure shown. Active and inactive are the calls of the source. The calls are words filed in the database; no cut-off is given here.

Columns and labels:
[1] = Fraction unbound in human plasma; type: ADME, cell-free
rat MDR1 [2] = assay: Permeability from apical to basolateral side in pig LLC-PK1 cells expressing rat MDR1; type: ADME, cell-based, Sus scrofa; settings: read-out: permeability
Rattus norvegicus [3] = assay: Immunomodulatory activity in Lewis rat assessed as peripheral lymphocyte reduction at 1 mg/kg, po after 24 hrs relative to control; type: functional; parameters: scale not given: the % may be the effect or the level left
[4] = Clearance in Sprague-Dawley rat at 1 mg/kg, iv and 3 mg/kg, po; type: ADME, organism-based; settings: in vivo
[5] = Solubility of the compound in simulated intestinal fluid; type: physicochemical; settings: simulated gi fluid
Rattus norvegicus [6] = assay: Immunomodulatory activity in Lewis rat assessed as peripheral lymphocyte reduction at 0.1 mg/kg, po after 24 hrs relative to control; type: functional
Rattus norvegicus [7] = assay: Immunomodulatory activity in Lewis rat assessed as peripheral lymphocyte reduction at 1 mg/kg, po after 24 hrs; type: functional; parameters: scale not given: the % may be the effect or the level left
[8] = target: T1, Sphingosine 1-phosphate receptor 3 (Homo sapiens, UniProt Q99500); assay: Agonist activity at human S1P3 receptor expressed in CHO cells coexpressing chimeric Gq/i5 G-protein assessed as Ca2+ release by FLIPR assay; type: functional, cell-based
T1 sequence (Q99500 whole entry): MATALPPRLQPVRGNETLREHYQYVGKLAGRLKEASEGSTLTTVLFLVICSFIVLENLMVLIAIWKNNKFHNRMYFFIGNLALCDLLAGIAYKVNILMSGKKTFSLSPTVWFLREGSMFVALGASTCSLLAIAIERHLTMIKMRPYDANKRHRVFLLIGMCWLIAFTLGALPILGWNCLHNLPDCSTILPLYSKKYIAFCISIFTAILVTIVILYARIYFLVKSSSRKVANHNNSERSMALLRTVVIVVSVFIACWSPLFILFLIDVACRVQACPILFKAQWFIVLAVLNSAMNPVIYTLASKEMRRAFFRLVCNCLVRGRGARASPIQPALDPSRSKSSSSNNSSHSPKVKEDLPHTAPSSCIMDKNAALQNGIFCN

Rattus norvegicus [9] = assay: Immunomodulatory activity in Lewis rat assessed as peripheral lymphocyte reduction at 0.3 mg/kg, po after 24 hrs relative to control; type: functional; parameters: scale not given: the % may be the effect or the level left
Cytochrome P450 3A4 [10] = target: T2, Cytochrome P450 3A4 (Homo sapiens, UniProt P08684); assay: Inhibition of CYP3A4; type: ADME
T2 sequence (P08684 whole entry): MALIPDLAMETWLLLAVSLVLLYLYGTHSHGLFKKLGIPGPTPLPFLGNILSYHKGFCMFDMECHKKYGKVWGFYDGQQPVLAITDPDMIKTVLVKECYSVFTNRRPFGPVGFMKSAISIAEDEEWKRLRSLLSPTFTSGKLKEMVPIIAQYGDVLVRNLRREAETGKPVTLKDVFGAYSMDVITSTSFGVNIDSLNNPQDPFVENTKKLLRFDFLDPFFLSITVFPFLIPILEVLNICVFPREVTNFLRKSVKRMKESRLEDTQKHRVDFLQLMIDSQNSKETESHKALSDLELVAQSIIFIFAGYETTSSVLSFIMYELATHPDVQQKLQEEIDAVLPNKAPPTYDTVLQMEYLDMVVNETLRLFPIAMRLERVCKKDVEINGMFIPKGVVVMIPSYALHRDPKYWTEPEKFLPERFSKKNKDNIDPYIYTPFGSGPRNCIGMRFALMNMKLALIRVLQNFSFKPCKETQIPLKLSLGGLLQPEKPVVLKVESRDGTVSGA

[11] = target: T3, Sphingosine 1-phosphate receptor 1 (Homo sapiens, UniProt P21453); assay: Agonist activity at eGFP-tagged human S1P1 receptor expressed in U2OS cells assessed as receptor internalization after 1 hr by Hoechst dye-based microscopic analysis relative to 1 uM 1-(4-(6-benzylbenzofuran-2-yl)-3-fluorobenzyl)azetidine-3-carboxylic acid; type: functional, cell-based
T3 sequence (P21453 whole entry): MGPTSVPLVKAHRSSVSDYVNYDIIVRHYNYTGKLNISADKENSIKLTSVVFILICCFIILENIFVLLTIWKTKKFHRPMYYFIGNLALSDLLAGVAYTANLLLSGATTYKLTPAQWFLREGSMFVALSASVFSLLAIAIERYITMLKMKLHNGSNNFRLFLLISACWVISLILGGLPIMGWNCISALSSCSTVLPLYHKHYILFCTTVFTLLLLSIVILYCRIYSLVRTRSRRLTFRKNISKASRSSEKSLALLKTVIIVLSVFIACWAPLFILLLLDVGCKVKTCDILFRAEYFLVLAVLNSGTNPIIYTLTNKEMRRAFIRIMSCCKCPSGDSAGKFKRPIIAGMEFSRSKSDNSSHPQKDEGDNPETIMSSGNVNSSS

[12] = target: T4, Voltage-gated inwardly rectifying potassium channel KCNH2 (Homo sapiens, UniProt Q12809); assay: Binding affinity to human Erg
T4 sequence (Q12809 whole entry): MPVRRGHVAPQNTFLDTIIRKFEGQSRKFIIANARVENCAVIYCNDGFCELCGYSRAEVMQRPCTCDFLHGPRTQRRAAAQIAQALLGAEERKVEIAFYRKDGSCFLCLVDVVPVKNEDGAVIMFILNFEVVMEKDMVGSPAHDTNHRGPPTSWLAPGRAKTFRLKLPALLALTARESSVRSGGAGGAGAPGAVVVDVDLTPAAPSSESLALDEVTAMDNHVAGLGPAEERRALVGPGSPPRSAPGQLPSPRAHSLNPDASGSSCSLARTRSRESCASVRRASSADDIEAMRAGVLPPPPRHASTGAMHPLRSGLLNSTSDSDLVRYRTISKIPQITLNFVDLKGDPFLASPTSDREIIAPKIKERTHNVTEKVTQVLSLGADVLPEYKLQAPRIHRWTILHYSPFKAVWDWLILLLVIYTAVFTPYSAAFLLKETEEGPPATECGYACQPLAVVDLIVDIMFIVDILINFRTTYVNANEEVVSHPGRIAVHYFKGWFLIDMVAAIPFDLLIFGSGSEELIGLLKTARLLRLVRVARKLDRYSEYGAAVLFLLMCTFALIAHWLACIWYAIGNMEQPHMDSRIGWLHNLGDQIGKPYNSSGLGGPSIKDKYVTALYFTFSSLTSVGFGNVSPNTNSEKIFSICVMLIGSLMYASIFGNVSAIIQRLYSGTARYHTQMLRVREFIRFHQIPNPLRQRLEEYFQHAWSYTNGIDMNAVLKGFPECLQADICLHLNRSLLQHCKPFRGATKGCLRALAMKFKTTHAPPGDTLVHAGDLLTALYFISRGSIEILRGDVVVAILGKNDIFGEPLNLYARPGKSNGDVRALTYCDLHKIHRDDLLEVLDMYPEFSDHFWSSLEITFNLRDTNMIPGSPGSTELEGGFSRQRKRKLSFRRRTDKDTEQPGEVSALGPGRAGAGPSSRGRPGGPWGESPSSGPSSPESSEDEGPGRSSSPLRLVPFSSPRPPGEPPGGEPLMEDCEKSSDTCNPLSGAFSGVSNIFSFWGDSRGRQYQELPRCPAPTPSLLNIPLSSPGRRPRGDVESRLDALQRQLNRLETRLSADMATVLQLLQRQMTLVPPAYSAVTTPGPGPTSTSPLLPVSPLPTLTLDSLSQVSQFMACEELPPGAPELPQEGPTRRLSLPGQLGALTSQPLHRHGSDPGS

Cytochrome P450 2D6 [13] = target: T5, Cytochrome P450 2D6 (Homo sapiens, UniProt P10635); assay: Induction of CYP2D6; type: ADME
T5 sequence (P10635 whole entry): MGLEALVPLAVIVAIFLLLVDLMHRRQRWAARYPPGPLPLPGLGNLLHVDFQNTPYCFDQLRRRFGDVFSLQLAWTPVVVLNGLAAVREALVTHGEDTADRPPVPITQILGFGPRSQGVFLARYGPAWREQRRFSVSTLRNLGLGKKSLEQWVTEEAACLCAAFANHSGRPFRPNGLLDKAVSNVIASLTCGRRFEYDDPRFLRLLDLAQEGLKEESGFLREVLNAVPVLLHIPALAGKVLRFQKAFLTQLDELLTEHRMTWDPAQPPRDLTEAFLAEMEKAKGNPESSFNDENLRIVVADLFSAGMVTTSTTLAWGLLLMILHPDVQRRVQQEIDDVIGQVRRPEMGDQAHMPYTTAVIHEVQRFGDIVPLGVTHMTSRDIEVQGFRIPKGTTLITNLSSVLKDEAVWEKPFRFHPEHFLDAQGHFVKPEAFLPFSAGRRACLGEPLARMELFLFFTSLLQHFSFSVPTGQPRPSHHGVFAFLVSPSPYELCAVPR

[14] = target: T4, Voltage-gated inwardly rectifying potassium channel KCNH2; assay: Inhibition of human Erg by electrophysiology assay
[15] = Volume of distribution at steady state in Sprague-Dawley rat at 1 mg/kg, iv and 3 mg/kg, po; type: ADME, organism-based; settings: in vivo, read-out: Vdss
[16] = Solubility of the compound in 0.01 N HCl; type: physicochemical; settings: buffer
[17] = Oral bioavailability in Sprague-Dawley rat at 3 mg/kg; type: ADME, organism-based; settings: in vivo
[18] = Fraction unbound in rat plasma; type: ADME, cell-free
[19] = target: T3, Sphingosine 1-phosphate receptor 1; assay: Agonist activity at eGFP-tagged human S1P1 receptor expressed in U2OS cells assessed as receptor internalization after 1 hr by Hoechst dye-based microscopic analysis; type: functional, cell-based
rat MDR1 [20] = assay: Efflux ratio of permeability across pig LLC-PK1 cells expressing rat MDR1; type: ADME, cell-based, Sus scrofa
Cytochrome P450 3A4 [21] = target: T2, Cytochrome P450 3A4; assay: Induction of CYP3A4; type: ADME
[22] = Solubility of the compound in phosphate buffer saline; type: physicochemical
Plasma [23] = assay: Plasma concentration in Lewis rat at 1 mg/kg, po; type: ADME, organism-based; parameters: dose 1 mg/kg, route oral; settings: in vivo
[24] = Mean residence time in Sprague-Dawley rat at 1 mg/kg, iv and 3 mg/kg, po; type: ADME, organism-based; settings: in vivo
Cytochrome P450 2D6 [25] = target: T5, Cytochrome P450 2D6; assay: Inhibition of CYP2D6; type: ADME
Plasma [26] = assay: Plasma concentration in Lewis rat at 0.1 mg/kg, po; type: ADME, organism-based; parameters: dose 0.1 mg/kg, route oral; settings: in vivo
[27] = target: T1, Sphingosine 1-phosphate receptor 3; assay: Agonist activity at human S1P3 receptor expressed in CHO cells coexpressing chimeric Gq/i5 G-protein assessed as Ca2+ release by FLIPR assay relative to 0.2 uM S1P; type: functional, cell-based

SMILES	EC50 [8] [nM]	Efficacy [11] [%]	EC50 [19] [nM]	Cp (Plasma [23]) [ng/mL]	Activity (Rattus norvegicus [7]) [%]	other results
O=C(O)C1CN(Cc2ccc(-c3nc4ccc(C5(c6ccccc6)CC5)nc4s3)c(F)c2)C1	–	–	–	116	71	Papp A→B (rat MDR1 [2]): 14.6 ×10⁻⁶ cm/s; solubility [5]: 65 ng/mL (≈ 0.141 µM); Cp (Plasma [26]): 10 ng/mL; Activity (Rattus norvegicus [6]): 65%; solubility [16]: 3 ng/mL (≈ 0.00653 µM); Efficacy [27]: 26%; solubility [22]: 7 ng/mL (≈ 0.0152 µM)
N[C@@H](CC(=O)O)C(=O)Nc1ccc(-c2nc3ccc(C4(c5ccccc5)CC4)nc3s2)c(F)c1	1130	134	0.5	1	0	Efficacy [27]: 35%
O=C(O)c1ccc(-c2nc3ccc(C4(c5ccccc5)CC4)nc3s2)c(F)c1	> 25000	105	2820	–	–	–
CN(CCC(=O)O)Cc1ccc(-c2nc3ccc(C4(c5ccccc5)CC4)nc3s2)c(F)c1	> 25000	153	196	–	–	–
O=C(O)CCNc1ccc(-c2nc3ccc(C4(c5ccccc5)CC4)nc3s2)c(F)c1	> 2500	94	42	–	–	–
Nc1ccc(-c2nc3ccc(C4(c5ccccc5)CC4)nc3s2)c(F)c1	> 25000	92	123	–	–	–
O=C(O)CCCNc1ccc(-c2nc3ccc(C4(c5ccccc5)CC4)nc3s2)c(F)c1	7120	113	36	–	–	Efficacy [27]: 18%
Fc1ccccc1-c1nc2ccc(C3(c4ccccc4)CC3)nc2s1	> 25000	98	45	–	–	–
N[C@H](CC(=O)O)C(=O)Nc1ccc(-c2nc3ccc(C4(c5ccccc5)CC4)nc3s2)c(F)c1	834	100	–	2	0	Efficacy [27]: 31%
O=C(O)CCNCc1ccc(-c2nc3ccc(C4(c5ccccc5)CC4)nc3s2)c(F)c1	> 25000	96	3	12	27	–
N[C@@H](CC(=O)Nc1ccc(-c2nc3ccc(C4(c5ccccc5)CC4)nc3s2)c(F)c1)C(=O)O	> 2500	102	2	8	4	–
O=C(O)CCCNCc1ccc(-c2nc3ccc(C4(c5ccccc5)CC4)nc3s2)c(F)c1	> 2500	128	179	–	–	–
N[C@H](CC(=O)Nc1ccc(-c2nc3ccc(C4(c5ccccc5)CC4)nc3s2)c(F)c1)C(=O)O	> 2500	110	2	4	0	–
NCc1ccc(-c2nc3ccc(C4(c5ccccc5)CC4)nc3s2)c(F)c1	> 2500	113	15	–	–	–
O=C(O)CCC(=O)Nc1ccc(-c2nc3ccc(C4(c5ccccc5)CC4)nc3s2)c(F)c1	5560	80	19	–	–	Efficacy [27]: 39%
O=C(O)CNCc1ccc(-c2nc3ccc(C4(c5ccccc5)CC4)nc3s2)c(F)c1	1560	103	3	7	37	Efficacy [27]: 17%

Continued, in another order:

EC50 [8] [nM]	Efficacy [11] [%]	EC50 [19] [nM]	Cp (Plasma [23]) [ng/mL]	SMILES	Activity (Rattus norvegicus [7]) [%]	other results
> 2500	114	0.2	10	C[C@@](N)(CCc1ccc(-c2nc3ccc(C4(c5ccccc5)CC4)nc3s2)c(F)c1)C(=O)O	71	fraction unbound [1]: 0.037; Papp A→B (rat MDR1 [2]): 4 ×10⁻⁶ cm/s; Activity (Rattus norvegicus [3]): 56%; clearance [4]: 6 mL/min/kg; solubility [5]: 108 ng/mL (≈ 0.234 µM); Activity (Rattus norvegicus [6]): inactive; Activity (Rattus norvegicus [9]): 29%; inhibition (INH) (Cytochrome P450 3A4 [10]): Not Active; Activity [12]: > 30 µM; Activity (Cytochrome P450 2D6 [13]): Not Active; INH [14]: > 10 µM; Vd [15]: 4.1 L/kg; solubility [16]: 6 ng/mL (≈ 0.013 µM); bioavailability [17]: 16%; fraction unbound [18]: 0.039; efflux ratio (rat MDR1 [20]): 1.8; Activity (Cytochrome P450 3A4 [21]): Not Active; solubility [22]: < 1 ng/mL; MRT [24]: 11.4 h; inhibition (INH) (Cytochrome P450 2D6 [25]): Not Active
> 25000	81	–	–	O=C(O)CCc1ccc(-c2nc3ccc(C4(c5ccccc5)CC4)nc3s2)c(F)c1	–	–
> 2500	93	3	6	C[C@](N)(CCc1ccc(-c2nc3ccc(C4(c5ccccc5)CC4)nc3s2)c(F)c1)C(=O)O	15	–
> 2500	121	8	–	NCCCc1ccc(-c2nc3ccc(C4(c5ccccc5)CC4)nc3s2)c(F)c1	–	–
> 25000	155	478	–	NCCc1ccc(-c2nc3ccc(C4(c5ccccc5)CC4)nc3s2)c(F)c1	–	–
> 2500	128	0.3	5	N[C@H](CCc1ccc(-c2nc3ccc(C4(c5ccccc5)CC4)nc3s2)c(F)c1)C(=O)O	55	–
> 25000	103	2410	–	O=C(O)CCCCc1ccc(-c2nc3ccc(C4(c5ccccc5)CC4)nc3s2)c(F)c1	–	–
> 25000	100	62	–	O=C(O)CCCc1ccc(-c2nc3ccc(C4(c5ccccc5)CC4)nc3s2)c(F)c1	–	–
1440	102	2	1	O=C(O)CNCCc1ccc(-c2nc3ccc(C4(c5ccccc5)CC4)nc3s2)c(F)c1	15	Efficacy [27]: 11%
> 2500	115	0.5	2	N[C@@H](CCc1ccc(-c2nc3ccc(C4(c5ccccc5)CC4)nc3s2)c(F)c1)C(=O)O	22	–
